Measured values as given in PubChem BioAssay AID330 (DTP/NCI, 2004).
“And” between values parts separate entries of the source, which are not always exact repeats. Equal values may be shown once. Inconclusive results and toxic doses are left out.

System: P388 leukemia ip, CD2F1 mice, survival T/C
Test: NCI In Vivo Anticancer Drug Screen. Data for tumor model P388 Leukemia (intraperitoneal) in CD2F1 (CDF1) mice
Conditions: endpoint: median survival time, higher = longer survival
Method in brief: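 Mice carrying the transplanted tumor received test compound or vehicle. Survival was recorded in each group, and the value is the treated-group measurement divided by that of the vehicle-treated control group.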

[1] = dose: 50.0 mg/kg/injection, schedule: Q01DX009 (ip), vehicle: Klucel (hydroxypropylcellulose) (HPC)
[2] = dose: 100.0 mg/kg/injection, schedule: Q01DX009 (ip), vehicle: Klucel (hydroxypropylcellulose) (HPC)
[3] = dose: 200.0 mg/kg/injection, schedule: Q01DX009 (ip), vehicle: Klucel (hydroxypropylcellulose) (HPC)
[4] = dose: 50.0 mg/kg/injection, schedule: Q01DX005 (ip), vehicle: saline with Tween-80
[5] = dose: 100.0 mg/kg/injection, schedule: Q01DX005 (ip), vehicle: saline with Tween-80
[6] = dose: 200.0 mg/kg/injection, schedule: Q01DX005 (ip), vehicle: saline with Tween-80
[7] = dose: 50.0 mg/kg/injection, schedule: Q01DX009 (ip), vehicle: saline with Tween-80
[8] = dose: 100.0 mg/kg/injection, schedule: Q01DX009 (ip), vehicle: saline with Tween-80
[9] = dose: 200.0 mg/kg/injection, schedule: Q01DX009 (ip), vehicle: saline with Tween-80
[10] = dose: 12.5 mg/kg/injection, schedule: Q04DX003 (ip), vehicle: saline

## Cn1c2cc(=O)ccc2c2c3nc4ccccc4[nH]c3cc(O)c21
dose: 50.0 mg/kg/injection, schedule: Q01DX009 (ip), vehicle: saline
  T/C: 98 % of control and 100 % of control
dose: 100.0 mg/kg/injection, schedule: Q01DX009 (ip), vehicle: saline
  T/C: 95 % of control and 91 % of control
dose: 200.0 mg/kg/injection, schedule: Q01DX009 (ip), vehicle: saline
  T/C: 100 % of control and 104 % of control

## O=C(O)C1C=CC2OC2C1C(=O)O (configuration not stated)
dose: 100.0 mg/kg/injection, schedule: Q01DX001 (ip), vehicle: Klucel (hydroxypropylcellulose) (HPC)
  T/C: 87 % of control
dose: 200.0 mg/kg/injection, schedule: Q01DX001 (ip), vehicle: Klucel (hydroxypropylcellulose) (HPC)
  T/C: 92 % of control
dose: 400.0 mg/kg/injection, schedule: Q01DX001 (ip), vehicle: Klucel (hydroxypropylcellulose) (HPC)
  T/C: 93 % of control

## NS(=O)(=O)c1ccc(NC(=O)CCCCl)cc1
[1]
  T/C: 100 % of control
[2]
  T/C: 94 % of control
[3]
  T/C: 86 % of control

## c1ccc2c(c1)Cc1c-2n[nH]c1-c1[nH]nc2c1Cc1ccccc1-2
dose: 60.0 mg/kg/injection, schedule: Q01DX005 (ip), vehicle: Klucel (hydroxypropylcellulose) (HPC)
  T/C: 96 % of control
dose: 120.0 mg/kg/injection, schedule: Q01DX005 (ip), vehicle: Klucel (hydroxypropylcellulose) (HPC)
  T/C: 102 % of control
dose: 240.0 mg/kg/injection, schedule: Q01DX005 (ip), vehicle: Klucel (hydroxypropylcellulose) (HPC)
  T/C: 96 % of control

## COC1C(CO)OC(n2c3c(Cl)cccc3c3c4c(c5c6cccc(Cl)c6[nH]c5c32)C(=O)NC4=O)C(O)C1O (configuration not stated)
dose: 25.0 mg/kg/injection, schedule: Q01DX005 (ip), vehicle: saline with Tween-80
  T/C: 155 % of control
dose: 50.0 mg/kg/injection, schedule: Q01DX005 (ip), vehicle: distilled water + Tween-80
  T/C: 152 % of control
[4]
  T/C: 155 % of control
dose: 100.0 mg/kg/injection, schedule: Q01DX005 (ip), vehicle: distilled water + Tween-80
  T/C: 158 % of control
[5]
  T/C: 155 % of control
dose: 200.0 mg/kg/injection, schedule: Q01DX005 (ip), vehicle: distilled water + Tween-80
  T/C: 152 % of control
[6]
  T/C: 159 % of control
dose: 400.0 mg/kg/injection, schedule: Q01DX005 (ip), vehicle: saline with Tween-80
  T/C: 182 % of control

## COC1OCC(NC(=O)CNC(=O)CCCCCCCCCCCCC(C)C)C(O)C1O (configuration not stated)
dose: 6.25 mg/kg/injection, schedule: Q01DX009 (ip), vehicle: distilled water + Tween-80
  T/C: 100 % of control
dose: 12.5 mg/kg/injection, schedule: Q01DX009 (ip), vehicle: distilled water + Tween-80
  T/C: 93 % of control
dose: 25.0 mg/kg/injection, schedule: Q01DX009 (ip), vehicle: distilled water + Tween-80
  T/C: 99 % of control
dose: 50.0 mg/kg/injection, schedule: Q01DX009 (ip), vehicle: distilled water + Tween-80
  T/C: 104 % of control
dose: 100.0 mg/kg/injection, schedule: Q01DX009 (ip), vehicle: distilled water + Tween-80
  T/C: 104 % of control
dose: 200.0 mg/kg/injection, schedule: Q01DX009 (ip), vehicle: distilled water + Tween-80
  T/C: 108 % of control

## Cc1ccc2[nH]c(=O)c(=O)[nH]c2c1
dose: 25.0 mg/kg/injection, schedule: Q01DX009 (ip), vehicle: saline with Tween-80
  T/C: 119 % of control
[7]
  T/C: 103 % of control
[8]
  T/C: 105 % of control
[9]
  T/C: 104 % of control

## Nc1ccc2c(c1)CCCC2=O
dose: 60.0 mg/kg/injection, schedule: Q01DX005 (ip), vehicle: saline with Tween-80
  T/C: 102 % of control
dose: 120.0 mg/kg/injection, schedule: Q01DX005 (ip), vehicle: saline with Tween-80
  T/C: 93 % of control
dose: 240.0 mg/kg/injection, schedule: Q01DX005 (ip), vehicle: saline with Tween-80
  T/C: 107 % of control

## CC1=C2CCCCCC2(O)OC1=O (configuration not stated)
dose: 6.25 mg/kg/injection, schedule: Q01DX001 (ip), vehicle: saline
  T/C: 109 % of control
dose: 12.5 mg/kg/injection, schedule: Q01DX001 (ip), vehicle: saline
  T/C: 111 % of control
dose: 25.0 mg/kg/injection, schedule: Q01DX001 (ip), vehicle: saline
  T/C: 104 % of control and 117 % of control
dose: 50.0 mg/kg/injection, schedule: Q01DX001 (ip), vehicle: saline
  T/C: 120 % of control
dose: 100.0 mg/kg/injection, schedule: Q01DX001 (ip), vehicle: saline
  T/C: 100 % of control

## CC1(C)CC(=O)OC/C=C\CC(Cc2ccccc2)C(=O)C1 (configuration not stated)
dose: 100.0 mg/kg/injection, schedule: Q04DX003 (ip), vehicle: saline
  T/C: 104 % of control
dose: 200.0 mg/kg/injection, schedule: Q04DX003 (ip), vehicle: saline
  T/C: 97 % of control
dose: 400.0 mg/kg/injection, schedule: Q04DX003 (ip), vehicle: saline
  T/C: 96 % of control

## c1cc(C2CO2)ccc1Oc1ccc(C2CO2)cc1 (configuration not stated)
[1]
  T/C: 103 % of control
[2]
  T/C: 88 % of control
[3]
  T/C: 93 % of control

## C=CCCCCCCCCC(=O)N1C(=O)C(c2ccccc2)(c2ccccc2)CSC1=S
[1]
  T/C: 91 % of control
[2]
  T/C: 92 % of control
[3]
  T/C: 90 % of control

## NC(=NCCCC(NCc1ccccc1)C(=O)O)N[N+](=O)[O-] (configuration not stated)
dose: 12.5 mg/kg/injection, schedule: Q01DX009 (ip), vehicle: Klucel (hydroxypropylcellulose) (HPC)
  T/C: 98 % of control
dose: 25.0 mg/kg/injection, schedule: Q01DX009 (ip), vehicle: Klucel (hydroxypropylcellulose) (HPC)
  T/C: 99 % of control
[1]
  T/C: 99 % of control and 100 % of control
[2]
  T/C: 99 % of control and 100 % of control
[3]
  T/C: 100 % of control and 96 % of control
dose: 400.0 mg/kg/injection, schedule: Q01DX009 (ip), vehicle: Klucel (hydroxypropylcellulose) (HPC)
  T/C: 94 % of control

## CC1(C)OC2C(CO)OC(n3c(Br)nc4c(N)ncnc43)C2O1 (configuration not stated)
[4]
  T/C: 100 % of control
[5]
  T/C: 103 % of control
[6]
  T/C: 100 % of control

## Cc1cccc(NC(=O)N(CCCl)N=O)c1
dose: 0.38 mg/kg/injection, schedule: Q04DX003 (ip), vehicle: saline with Tween-80
  T/C: 186 % of control
dose: 0.75 mg/kg/injection, schedule: Q04DX003 (ip), vehicle: saline with Tween-80
  T/C: 218 % of control
dose: 1.5 mg/kg/injection, schedule: Q01DX009 (ip), vehicle: saline
  T/C: 159 % of control
dose: 1.5 mg/kg/injection, schedule: Q04DX003 (ip), vehicle: saline with Tween-80
  T/C: 272 % of control
dose: 3.0 mg/kg/injection, schedule: Q01DX009 (ip), vehicle: saline
  T/C: 206 % of control
dose: 3.13 mg/kg/injection, schedule: Q01DX009 (ip), vehicle: saline with Tween-80
  T/C: 254 % of control
dose: 3.13 mg/kg/injection, schedule: Q04DX003 (ip), vehicle: saline
  T/C: 190 % of control
dose: 6.25 mg/kg/injection, schedule: Q01DX009 (ip), vehicle: saline with Tween-80
  T/C: 95 % of control
dose: 6.25 mg/kg/injection, schedule: Q04DX003 (ip), vehicle: saline with Tween-80
  T/C: 200 % of control
dose: 6.25 mg/kg/injection, schedule: Q04DX003 (ip), vehicle: saline
  T/C: 209 % of control
dose: 8.25 mg/kg/injection, schedule: Q04DX003 (ip), vehicle: saline with Tween-80
  T/C: 276 % of control
dose: 12.5 mg/kg/injection, schedule: Q04DX003 (ip), vehicle: saline with Tween-80
  T/C: 272 % of control and 285 % of control
[10]
  T/C: 118 % of control

## CC[N+](C)(CC)C/C(C)=C(/c1ccccc1S(=O)(=O)N(C)C)C(C)C[N+](C)(CC)CC (configuration not stated)
[10]
  T/C: 102 % of control
dose: 25.0 mg/kg/injection, schedule: Q04DX003 (ip), vehicle: saline
  T/C: 103 % of control

## O=C(Nc1nc2cc(Cl)ccc2o1)c1ccc(C(=O)Nc2nc3cc(Cl)ccc3o2)cc1
dose: 100.0 mg/kg/injection, schedule: Q04DX003 (ip), vehicle: saline with Tween-80
  T/C: 108 % of control
dose: 200.0 mg/kg/injection, schedule: Q04DX003 (ip), vehicle: saline with Tween-80
  T/C: 94 % of control
dose: 400.0 mg/kg/injection, schedule: Q04DX003 (ip), vehicle: saline with Tween-80
  T/C: 99 % of control

## CN=C(C)NO
dose: 50.0 mg/kg/injection, schedule: Q01DX005 (ip), vehicle: saline
  T/C: 106 % of control
dose: 100.0 mg/kg/injection, schedule: Q01DX005 (ip), vehicle: saline
  T/C: 104 % of control
dose: 200.0 mg/kg/injection, schedule: Q01DX005 (ip), vehicle: saline
  T/C: 99 % of control

## CCCCCCCCCCCN(C)C
[4]
  T/C: 105 % of control
[5]
  T/C: 105 % of control

## Nc1c(I)cc(I)cc1C(=O)O
[1]
  T/C: 99 % of control and 101 % of control
[2]
  T/C: 101 % of control and 114 % of control

## CC(C)NCC(O)c1ccc(O)c(NC=O)c1 (configuration not stated)
[7]
  T/C: 102 % of control
[8]
  T/C: 104 % of control
[9]
  T/C: 100 % of control

## Nc1n[n+](C2CCCCC2)no1
dose: 3.13 mg/kg/injection, schedule: Q01DX009 (ip), vehicle: water
  T/C: 111 % of control
dose: 6.25 mg/kg/injection, schedule: Q01DX009 (ip), vehicle: water
  T/C: 98 % of control
dose: 12.5 mg/kg/injection, schedule: Q01DX009 (ip), vehicle: water
  T/C: 101 % of control
